# Experiments:
# [1] = human, in vivo
# [2] = Degradation to 25-desacetyl derivative under acidic and basic conditions; type: physicochemical
# From the text: Rifalazil degrades to a 25-desacetyl derivative under both acidic and basic conditions. Typical of ester hydrolysis, the degradation in highly alkaline solutions is rapid while at an acidic pH, e.g., pH 1, the degradation at room temperature is slower, approximately 6% in one hour.
# C. trachomatis = assay: Cell culture protection against re-infection with C. trachomatis; type: cell-based; conditions: single doses in cell culture
# [3] = Single 25 mg rifalazil with Ortho-Novum 1/35 in post-menopausal female volunteers, adverse events; conditions: human, in vivo
# Method: In another study, a single oral dose of 25 mg rifalazil was administered and its effects on ethinyl estradiol and norethindrone levels administered as the contraceptive Ortho-Novum 1/35® in 16 healthy post-menopausal female volunteers for 14 days was determined. The incidence of AEs was similar between the two treatment periods, with 13 (93%) of the 14 subjects included in the safety population experiencing at least 1 AE during dosing with Ortho-Novum 1/35 alone and 12 (86%) during dosing with rifalazil and Ortho-Novum 1/35. Overall, 4 (29%) subjects experienced at least 1 AE considered by the Investigator to be at least possibly related to rifalazil. The most commonly reported rifalazil-related events were nausea (4 subjects, 29%); headache (3 subjects, 21%); and loose stools, feeling hot, rigors, and myalgia (2 subjects each, 14%).
# The majority of AEs were of mild or moderate intensity. One subject experienced myalgia of severe intensity during dosing with rifalazil and Ortho-Novum 1/35 that was assessed as probably related to study medication. […] Two subjects withdrew from the study because of AEs during the Ortho-Novum 1/35 only dosing period; neither subject received rifalazil.
# [4] = Phase 1 Study ABI-1648-006, single oral dose pharmacokinetics; conditions: for half-life / Tmax / CL/F / AUC(0-inf) / Cmax: human, plasma; for AUC0−∞/Dose Mean / Cmax/Dose Mean: normalized to mg/kg
# Method: Study ABI-1648-006 was conducted to evaluate the PK of single and multiple oral doses of 2.5, 5, 12.5, and 25 mg administered to healthy male and female volunteers.
# physchem = type: physicochemical
# Method: Rifalazil is a highly lipophilic molecule having limited solubility in water at physiological pH (approximately 200 ng/mL). Evidence of the highly lipophilic behavior of the molecule is illustrated in the partition coefficient (n-octanol:water) of between 70, 569 and over 900,000 in different experiments (Log P range; 4.9-5.9).
# [5] = females, single oral dose 2.5 mg
# [6] = females, single oral dose 12.5 mg
# [7] = females, single oral dose 25 mg
# [8] = males, single oral dose 12.5 mg
compound,measurement,setting,value
"CO[C@H]1/C=C/O[C@@]2(C)Oc3c(C)c(O)c4c(=O)c(c5oc6cc(N7CCN(CC(C)C)CC7)cc(O)c6nc-5c4c3C2=O)NC(=O)/C(C)=C\C=C\[C@H](C)[C@H](O)[C@@H](C)[C@@H](O)[C@@H](C)[C@H](OC(C)=O)[C@@H]1C [rifalazil, 3′-hydroxy-5′-(4-isobutyl-1-piperazinyl) benzoxazinorifamycin]",overall extent of metabolism,[1],less than 3 % of the administered dose
same,degradation in highly alkaline solutions,[2]; highly alkaline solutions,rapid
same,degradation to 25-desacetyl derivative,"[2]; pH 1, room temperature, in one hour",approximately 6%
same,duration of protective effect against re-infection with C. trachomatis,C. trachomatis,up to 12 days
same,subjects experiencing at least 1 AE,[3]; female,86%
same,deaths or other serious AEs,[3],No deaths or other serious AEs
same,subjects with transient Grade 3 decreases in absolute lymphocyte count (ALC<0.5×10^3/mm^3),[3],two
same,Time to maximum concentration,[4]; after single dose administration (study conclusions),4 to 6 h
same,half-life,"[4]; both, oral, elimination t1/2, study conclusions",100 to 150 h
same,Tmax,"[4]; both, po",4.8 to 6.2 h
same,half-life,"[4]; both, po, mean distribution t1/2, range across groups, single oral doses 2.5-25 mg, males and females",4.5 to 8.6 h
same,half-life,"[4]; both, po, mean elimination t1/2, range across groups, single oral doses 2.5-25 mg, males and females",101 to 150 h
same,CL/F,"[4]; female, po, 2.5 mg",4.17 mL/min/kg
same,Tmax,"[4]; female, po, 2.5 mg",4.8 h
same,AUC(0-inf),"[4]; female, po, 2.5 mg, AUC0−∞ GMean (geometric mean), females, single oral dose 2.5 mg",168 ng·h/mL
same,AUC(0-inf),"[4]; female, po, 2.5 mg, AUC0−∞ Mean, females, single oral dose 2.5 mg",174 ng·h/mL
same,Cmax,"[4]; female, po, 2.5 mg, Cmax GMean (geometric mean), females, single oral dose 2.5 mg",7.1 ng/mL
same,Cmax,"[4]; female, po, 2.5 mg, Cmax Mean, females, single oral dose 2.5 mg",7.5 ng/mL
same,half-life,"[4]; female, po, 2.5 mg, Distribution t1/2 Mean, females, single oral dose 2.5 mg",5 h
same,half-life,"[4]; female, po, 2.5 mg, Elimination t1/2 Mean, females, single oral dose 2.5 mg",133 h
same,CL/F,"[4]; female, po, 5 mg",3.83 mL/min/kg
same,Tmax,"[4]; female, po, 5 mg",5 h
same,AUC(0-inf),"[4]; female, po, 5 mg, AUC0−∞ GMean (geometric mean), females, single oral dose 5 mg",373 ng·h/mL
same,AUC(0-inf),"[4]; female, po, 5 mg, AUC0−∞ Mean, females, single oral dose 5 mg",397 ng·h/mL
same,Cmax,"[4]; female, po, 5 mg, Cmax GMean (geometric mean), females, single oral dose 5 mg",13.5 ng/mL
same,Cmax,"[4]; female, po, 5 mg, Cmax Mean, females, single oral dose 5 mg",14.6 ng/mL
same,half-life,"[4]; female, po, 5 mg, Distribution t1/2 Mean, females, single oral dose 5 mg",4.5 h
same,half-life,"[4]; female, po, 5 mg, Elimination t1/2 Mean, females, single oral dose 5 mg",137 h
same,CL/F,"[4]; female, po, 12.5 mg",6.5 mL/min/kg
same,Tmax,"[4]; female, po, 12.5 mg",6.2 h
same,AUC(0-inf),"[4]; female, po, 12.5 mg, AUC0−∞ GMean (geometric mean), females, single oral dose 12.5 mg",526 ng·h/mL
same,AUC(0-inf),"[4]; female, po, 12.5 mg, AUC0−∞ Mean, females, single oral dose 12.5 mg",540 ng·h/mL
same,Cmax,"[4]; female, po, 12.5 mg, Cmax GMean (geometric mean), females, single oral dose 12.5 mg",19.9 ng/mL
same,Cmax,"[4]; female, po, 12.5 mg, Cmax Mean, females, single oral dose 12.5 mg",20.8 ng/mL
same,half-life,"[4]; female, po, 12.5 mg, Distribution t1/2 Mean, females, single oral dose 12.5 mg",6.1 h
same,half-life,"[4]; female, po, 12.5 mg, Elimination t1/2 Mean, females, single oral dose 12.5 mg",110 h
same,CL/F,"[4]; female, po, 25 mg",7.17 mL/min/kg
same,Tmax,"[4]; female, po, 25 mg",4.8 h
same,AUC(0-inf),"[4]; female, po, 25 mg, AUC0−∞ GMean (geometric mean), females, single oral dose 25 mg",1020 ng·h/mL
same,AUC(0-inf),"[4]; female, po, 25 mg, AUC0−∞ Mean, females, single oral dose 25 mg",1100 ng·h/mL
same,Cmax,"[4]; female, po, 25 mg, Cmax GMean (geometric mean), females, single oral dose 25 mg",33.3 ng/mL
same,Cmax,"[4]; female, po, 25 mg, Cmax Mean, females, single oral dose 25 mg",36.5 ng/mL
same,half-life,"[4]; female, po, 25 mg, Distribution t1/2 Mean, females, single oral dose 25 mg",7.8 h
same,half-life,"[4]; female, po, 25 mg, Elimination t1/2 Mean, females, single oral dose 25 mg",150 h
same,Vdβ/F Mean,[4]; [5],45.0 L/kg
same,AUC0−∞/Dose Mean,[4]; [5],4274.6
same,Cmax/Dose Mean,[4]; [5],183.1
same,Vdβ/F Mean,"[4]; females, single oral dose 5 mg",41.6 L/kg
same,AUC0−∞/Dose Mean,"[4]; females, single oral dose 5 mg",5124.5
same,Cmax/Dose Mean,"[4]; females, single oral dose 5 mg",185.1
same,Vdβ/F Mean,[4]; [6],61.6 L/kg
same,AUC0−∞/Dose Mean,[4]; [6],2759.4
same,Cmax/Dose Mean,[4]; [6],106.9
same,Vdβ/F Mean,[4]; [7],82.8 L/kg
same,AUC0−∞/Dose Mean,[4]; [7],2796.3
same,Cmax/Dose Mean,[4]; [7],91.3
same,CL/F,"[4]; male, po, 2.5 mg",3.5 mL/min/kg
same,Tmax,"[4]; male, po, 2.5 mg",5.3 h
same,AUC(0-inf),"[4]; male, po, 2.5 mg, AUC0−∞ GMean (geometric mean), males, single oral dose 2.5 mg",172 ng·h/mL
same,AUC(0-inf),"[4]; male, po, 2.5 mg, AUC0−∞ Mean, males, single oral dose 2.5 mg",188 ng·h/mL
same,Cmax,"[4]; male, po, 2.5 mg, Cmax GMean (geometric mean), males, single oral dose 2.5 mg",7.8 ng/mL
same,Cmax,"[4]; male, po, 2.5 mg, Cmax Mean, males, single oral dose 2.5 mg",8.4 ng/mL
same,half-life,"[4]; male, po, 2.5 mg, Distribution t1/2 Mean, males, single oral dose 2.5 mg",5.3 h
same,half-life,"[4]; male, po, 2.5 mg, Elimination t1/2 Mean, males, single oral dose 2.5 mg",101 h
same,CL/F,"[4]; male, po, 12.5 mg",5.5 mL/min/kg
same,Tmax,"[4]; male, po, 12.5 mg",5 h
same,AUC(0-inf),"[4]; male, po, 12.5 mg, AUC0−∞ GMean (geometric mean), males, single oral dose 12.5 mg",528 ng·h/mL
same,AUC(0-inf),"[4]; male, po, 12.5 mg, AUC0−∞ Mean, males, single oral dose 12.5 mg",552 ng·h/mL
same,Cmax,"[4]; male, po, 12.5 mg, Cmax GMean (geometric mean), males, single oral dose 12.5 mg",19.2 ng/mL
same,Cmax,"[4]; male, po, 12.5 mg, Cmax Mean, males, single oral dose 12.5 mg",19.7 ng/mL
same,half-life,"[4]; male, po, 12.5 mg, Distribution t1/2 Mean, males, single oral dose 12.5 mg",7.7 h
same,half-life,"[4]; male, po, 12.5 mg, Elimination t1/2 Mean, males, single oral dose 12.5 mg",134 h
same,CL/F,"[4]; male, po, 25 mg",8 mL/min/kg
same,Tmax,"[4]; male, po, 25 mg",5 h
same,AUC(0-inf),"[4]; male, po, 25 mg, AUC0−∞ GMean (geometric mean), males, single oral dose 25 mg",656 ng·h/mL
same,AUC(0-inf),"[4]; male, po, 25 mg, AUC0−∞ Mean, males, single oral dose 25 mg",683 ng·h/mL
same,Cmax,"[4]; male, po, 25 mg, Cmax GMean (geometric mean), males, single oral dose 25 mg",23.9 ng/mL
same,Cmax,"[4]; male, po, 25 mg, Cmax Mean, males, single oral dose 25 mg",24.7 ng/mL
same,half-life,"[4]; male, po, 25 mg, Distribution t1/2 Mean, males, single oral dose 25 mg",8.7 h
same,half-life,"[4]; male, po, 25 mg, Elimination t1/2 Mean, males, single oral dose 25 mg",116 h
same,Vdβ/F Mean,"[4]; males, single oral dose 2.5 mg",25.4 L/kg
same,AUC0−∞/Dose Mean,"[4]; males, single oral dose 2.5 mg",6084.0
same,Cmax/Dose Mean,"[4]; males, single oral dose 2.5 mg",269.6
same,Vdβ/F Mean,[4]; [8],62.3 L/kg
same,AUC0−∞/Dose Mean,[4]; [8],3299.8
same,Cmax/Dose Mean,[4]; [8],117.4
same,Vdβ/F Mean,"[4]; males, single oral dose 25 mg",74.2 L/kg
same,AUC0−∞/Dose Mean,"[4]; males, single oral dose 25 mg",2273.8
same,Cmax/Dose Mean,"[4]; males, single oral dose 25 mg",82.0
same,partition coefficient (n-octanol:water),physchem,"70, 569-900,000"
same,logP,"physchem; n-octanol:water, different experiments, read-out: Log P range",4.9 to 5.9
same,solubility,"physchem; pH 7.4, aqueous buffer, physiological pH, read-out: solubility in water",~0.2 µg/mL

# From patent US20070112018A1, “Treatment of peripheral arterial occlusive disease” (priority 2005, published 2007)
